System: human fibrosarcoma HT1080 cells
Type: cell-based

Structure (SMILES) | protection of HT1080 cells against WT-PA plus FP59
CNC(=O)[C@@H](NC(=O)[C@H](CC(C)C)[C@H](O)C(=O)NO)C(C)(C)C [BB-2516, Marimastat] | did not protect
CNC(=O)[C@H](Cc1c[nH]c2ccccc12)NC(=O)[C@@H](CC(=O)NO)CC(C)C [GM6001] | did not protect
